The text below walks through data of patent US12624044B2, “SMARCA degraders and uses thereof” (Kymera Therapeutics, Inc., priority 2019, dated 2026).

SMILES strings stand for the structures.

The target in this assay is SMARCA2 (Homo sapiens, UniProt P51531). The assay can be described thus: MSD SMARCA2 degradation in NCI-H1299 cell line (24 h). The arrangement: HC: NCI-H1299 cells treated with DMSO; host or cells: NCI-H1299. To be noted: for Dmax: NCI-H1299, NCI-H1299 cells; for DC50: NCI-H1299 cells, read-out: SMARCA2 MSD H1299 degradation 24 h: External Abs-DC50. The assay is classed as cell-based. In outline:
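SMARCA2 measured by MSD electrochemiluminescence (primary 0.3 ug/ml, secondary 1 ug/ml) on lysates from NCI-H1299 cells exposed to compounds for 24 h across nine 3-fold dilutions. Signal scaled from A2780 cells (no SMARCA2) to DMSO-treated H1299 controls, and maximal degradation after 24 h reported in letter categories.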

Sequence of SMARCA2 (P51531 whole entry): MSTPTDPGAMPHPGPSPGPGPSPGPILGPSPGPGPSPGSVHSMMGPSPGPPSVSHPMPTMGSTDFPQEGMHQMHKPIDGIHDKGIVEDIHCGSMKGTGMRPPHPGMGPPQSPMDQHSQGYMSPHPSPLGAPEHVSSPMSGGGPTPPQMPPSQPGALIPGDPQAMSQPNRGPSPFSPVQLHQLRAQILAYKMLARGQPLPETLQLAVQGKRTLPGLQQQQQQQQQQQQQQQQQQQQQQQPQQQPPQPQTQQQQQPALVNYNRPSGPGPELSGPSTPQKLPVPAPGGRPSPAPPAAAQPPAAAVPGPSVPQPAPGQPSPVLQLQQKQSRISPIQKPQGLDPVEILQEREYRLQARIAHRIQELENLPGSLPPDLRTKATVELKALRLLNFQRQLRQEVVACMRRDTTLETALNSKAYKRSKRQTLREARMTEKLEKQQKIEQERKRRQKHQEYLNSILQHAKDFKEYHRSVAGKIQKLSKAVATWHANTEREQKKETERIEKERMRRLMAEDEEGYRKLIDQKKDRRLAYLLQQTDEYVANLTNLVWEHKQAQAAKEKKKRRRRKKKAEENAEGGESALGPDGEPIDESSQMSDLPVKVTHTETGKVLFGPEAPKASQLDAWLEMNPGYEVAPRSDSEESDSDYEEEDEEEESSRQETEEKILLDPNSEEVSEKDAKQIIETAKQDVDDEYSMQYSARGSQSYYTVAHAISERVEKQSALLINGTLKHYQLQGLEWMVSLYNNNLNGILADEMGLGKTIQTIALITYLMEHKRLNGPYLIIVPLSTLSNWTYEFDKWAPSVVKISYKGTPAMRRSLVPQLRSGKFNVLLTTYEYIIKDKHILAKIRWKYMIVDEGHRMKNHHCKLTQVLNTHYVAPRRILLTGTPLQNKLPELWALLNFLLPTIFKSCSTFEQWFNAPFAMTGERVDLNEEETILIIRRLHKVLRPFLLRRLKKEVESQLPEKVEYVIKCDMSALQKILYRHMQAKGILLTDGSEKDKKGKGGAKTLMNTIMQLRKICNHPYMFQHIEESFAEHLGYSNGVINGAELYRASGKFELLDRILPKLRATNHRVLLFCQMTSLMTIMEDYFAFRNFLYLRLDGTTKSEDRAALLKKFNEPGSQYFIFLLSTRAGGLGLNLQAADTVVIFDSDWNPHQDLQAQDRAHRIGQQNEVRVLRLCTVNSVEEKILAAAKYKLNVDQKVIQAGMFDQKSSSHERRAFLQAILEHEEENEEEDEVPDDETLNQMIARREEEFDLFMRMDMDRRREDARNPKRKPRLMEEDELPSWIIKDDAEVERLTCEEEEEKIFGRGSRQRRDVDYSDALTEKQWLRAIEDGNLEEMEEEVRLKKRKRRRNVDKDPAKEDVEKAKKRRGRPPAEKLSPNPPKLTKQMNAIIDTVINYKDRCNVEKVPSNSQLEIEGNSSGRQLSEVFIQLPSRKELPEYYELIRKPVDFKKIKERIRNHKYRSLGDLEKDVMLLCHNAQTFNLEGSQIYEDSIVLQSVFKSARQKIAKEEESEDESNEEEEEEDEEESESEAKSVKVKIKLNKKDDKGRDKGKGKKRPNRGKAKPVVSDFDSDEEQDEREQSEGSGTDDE

As a reminder, the Dmax is the largest share of the target that was removed. Lower therefore signals shallow degradation. One may read the DC50 as the midpoint of the concentration-degradation curve. Regarding `Cn1c(=O)n(C2CCC(=O)NC2=O)c2cccc(CCCCCCOc3ccc(CN4CCN(c5cc(-c6ccccc6O)nnc5N)CC4)cc3)c21` (stereo not shown) [I-93], the Dmax is less than 50% and the DC50 is more than 1000 nM.
On to `Cn1c(=O)n(C2CCC(=O)NC2=O)c2cccc(CCCCCCCOc3ccc(CN4CCN(c5cc(-c6ccccc6O)nnc5N)CC4)cc3)c21` (stereo not shown) [I-94], for which the Dmax was 50 to 70% and the DC50 was more than 1000 nM.
For the molecule `Cn1c(=O)n(C2CCC(=O)NC2=O)c2cccc(CCCOc3cccc(CN4CCN(c5cc(-c6ccccc6O)nnc5N)CC4)c3)c21` (stereo not shown) [I-95], the Dmax was less than 50% and the DC50 was more than 1000 nM.
Turning to `Cn1c(=O)n(C2CCC(=O)NC2=O)c2cccc(CCCCOc3cccc(CN4CCN(c5cc(-c6ccccc6O)nnc5N)CC4)c3)c21` (stereo not shown) [I-96], the maximal degradation (Dmax) was in the range of 50 to 70% and the DC50 was in the range of 100 to 500 nM.
Turning to `Cn1c(=O)n(C2CCC(=O)NC2=O)c2cccc(CCCCCOc3cccc(CN4CCN(c5cc(-c6ccccc6O)nnc5N)CC4)c3)c21` (stereo not shown) [I-97], the Dmax is 50 to 70% and the DC50 was in the range of 100 to 500 nM.
On to `Cn1c(=O)n(C2CCC(=O)NC2=O)c2cccc(CCCCCCOc3cccc(CN4CCN(c5cc(-c6ccccc6O)nnc5N)CC4)c3)c21` (stereo not shown) [I-98], for which the Dmax lay within 50 to 70% and the DC50 lay in the range of 501 to 1000 nM.
The matching figures for `Cn1c(=O)n(C2CCC(=O)NC2=O)c2cccc(CCCCCCCOc3cccc(CN4CCN(c5cc(-c6ccccc6O)nnc5N)CC4)c3)c21` (stereo not shown) [I-99]: less than 50% and more than 1000 nM.
For `Cn1c(=O)n(C2CCC(=O)NC2=O)c2ccc(CCCOc3cccc(CN4CCN(c5cc(-c6ccccc6O)nnc5N)CC4)c3)cc21` (stereo not shown) [I-100], the Dmax was less than 50% and the 50% degradation concentration (DC50) is more than 1000 nM.
For `Cn1c(=O)n(C2CCC(=O)NC2=O)c2ccc(CCCCOc3cccc(CN4CCN(c5cc(-c6ccccc6O)nnc5N)CC4)c3)cc21` (stereo not shown) [I-101] the same measures were less than 50% and more than 1000 nM.
As for `Cn1c(=O)n(C2CCC(=O)NC2=O)c2ccc(CCCCCOc3cccc(CN4CCN(c5cc(-c6ccccc6O)nnc5N)CC4)c3)cc21` (stereo not shown) [I-102], the Dmax is less than 50% and the DC50 was more than 1000 nM.
The matching figures for `Cn1c(=O)n(C2CCC(=O)NC2=O)c2ccc(CCCCCCOc3cccc(CN4CCN(c5cc(-c6ccccc6O)nnc5N)CC4)c3)cc21` (stereo not shown) [I-103]: less than 50% and more than 1000 nM.
For `Cn1c(=O)n(C2CCC(=O)NC2=O)c2ccc(CCCCCCCOc3cccc(CN4CCN(c5cc(-c6ccccc6O)nnc5N)CC4)c3)cc21` (stereo not shown) [I-104], the greatest degradation seen (Dmax) lay within 70 to 90% and the DC50 lay in the range of 100 to 500 nM.
For `Cn1c(=O)n(C2CCC(=O)NC2=O)c2ccc(CCCOCCN3CCN(Cc4ccc(-c5cc(-c6ccccc6O)nnc5N)cc4)CC3)cc21` (stereo not shown) [I-105, 3-[5-[3-[2-[4-[[4-[3-amino-6-(2-hydroxyphenyl)pyridazin-4-yl]phenyl]methyl]piperazin-1-yl]ethoxy]propyl]-3-methyl-2-oxo-benzimidazol-1-yl]piperidine-2,6-dione] the same measures were less than 50% and more than 1000 nM.
Take `Cn1c(=O)n(C2CCC(=O)NC2=O)c2cccc(CCCOCCN3CCN(Cc4ccc(-c5cc(-c6ccccc6O)nnc5N)cc4)CC3)c21` (stereo not shown) [I-106]: the Dmax fell in the range of 50 to 70% and the DC50 is 100 to 500 nM.
For `Cn1c(=O)n(C2CCC(=O)NC2=O)c2cccc(CCCOCCOCCN3CCN(Cc4ccc(-c5cc(-c6ccccc6O)nnc5N)cc4)CC3)c21` (stereo not shown) [I-107], the Dmax fell in the range of 50 to 70% and the DC50 fell in the range of 100 to 500 nM.
The matching figures for `Cn1c(=O)n(C2CCC(=O)NC2=O)c2cccc(CCCOCCOCCOCCN3CCN(Cc4ccc(-c5cc(-c6ccccc6O)nnc5N)cc4)CC3)c21` (stereo not shown) [I-108]: less than 50% and more than 1000 nM.
Turning to `CN(Cc1ccc(N2CCN(c3cc(-c4ccccc4O)nnc3N)CC2)cc1)C1CCN(Cc2cccc3c2n(C)c(=O)n3C2CCC(=O)NC2=O)CC1` (stereo not shown) [I-109], the Dmax was 70 to 90% and the DC50 was 100 to 500 nM.
On to `CN(CCCN1CCC(c2cccc3c2n(C)c(=O)n3C2CCC(=O)NC2=O)CC1)Cc1ccc(N2CCN(c3cc(-c4ccccc4O)nnc3N)CC2)cc1` (stereo not shown) [I-110], for which the maximal degradation (Dmax) was more than 90% and the DC50 was 100 to 500 nM.
As for `CN(CC[C@@H]1CN(CCCc2cccc3c2n(C)c(=O)n3C2CCC(=O)NC2=O)CCO1)Cc1ccc(N2CCN(c3cc(-c4ccccc4O)nnc3N)CC2)cc1` (stereo partly shown) [I-111], the Dmax was 70 to 90% and the DC50 lay within 100 to 500 nM.
Regarding `CN(CCCOCCCc1cccc2c1n(C)c(=O)n2C1CCC(=O)NC1=O)Cc1ccc(N2CCN(c3cc(-c4ccccc4O)nnc3N)CC2)cc1` (stereo not shown) [I-112], the greatest degradation seen (Dmax) was less than 50% and the half-maximal degradation concentration (DC50) is more than 1000 nM.
As to `CN1C(=O)CCC(n2c(=O)n(C)c3c(CCCOCCOCCNCc4ccc(N5CCN(c6cc(-c7ccccc7O)nnc6N)CC5)cc4)cccc32)C1=O` (stereo not shown) [I-113], the Dmax was less than 50% and the DC50 was more than 1000 nM.
Take `CN(Cc1ccc(N2CCN(c3cc(-c4ccccc4O)nnc3N)CC2)cc1)CC1CCN(c2ccc3c(c2)n(C)c(=O)n3C2CCC(=O)NC2=O)CC1` (stereo not shown) [I-114]: the Dmax was 50 to 70% and the DC50 is less than 100 nM.
On to `Cn1c(=O)n(C2CCC(=O)NC2=O)c2cccc(CCCOC3CCN(Cc4ccc(N5CCN(c6cc(-c7ccccc7O)nnc6N)CC5)cc4)CC3)c21` (stereo not shown) [I-115], for which the Dmax fell in the range of 70 to 90% and the DC50 fell in the range of 100 to 500 nM.
In the case of `Nc1nnc(-c2ccccc2O)cc1N1CCN(c2ccc(CNCCOCCCc3cccc4c3oc(=O)n4C3CCC(=O)NC3=O)cc2)CC1` (stereo not shown) [I-116], the greatest degradation seen (Dmax) lay in the range of 50 to 70% and the DC50 fell in the range of 501 to 1000 nM.
With `CN(Cc1ccc(N2CCN(c3cc(-c4ccccc4O)nnc3N)CC2)cc1)C[C@@H]1CN(CCCc2cccc3c2n(C)c(=O)n3C2CCC(=O)NC2=O)CCO1` (stereo partly shown) [I-117], the greatest degradation seen (Dmax) fell in the range of 70 to 90% and the DC50 fell in the range of 100 to 500 nM.
The matching figures for `Cn1c(=O)n(C2CCC(=O)NC2=O)c2cccc(C#CCN3CCO[C@H](CNCc4ccc(N5CCN(c6cc(-c7ccccc7O)nnc6N)CC5)cc4)C3)c21` (stereo partly shown) [I-118]: less than 50% and more than 1000 nM.
As for `CN(CCCCOCCCCc1cccc2c1n(C)c(=O)n2C1CCC(=O)NC1=O)Cc1ccc(N2CCN(c3cc(-c4ccccc4O)nnc3N)CC2)cc1` (stereo not shown) [I-119], the Dmax lay in the range of 70 to 90% and the DC50 is 100 to 500 nM.
Turning to `Cn1c(=O)n(C2CCC(=O)NC2=O)c2ccc(CCCN3CCO[C@@H](CNCc4ccc(N5CCN(c6cc(-c7ccccc7O)nnc6N)CC5)cc4)C3)cc21` (stereo partly shown) [I-120], the Dmax was in the range of 50 to 70% and the DC50 is 501 to 1000 nM.
In the case of `Cn1c(=O)n(C2CCC(=O)NC2=O)c2cccc(CCCO[C@H]3C[C@H](N(C)Cc4ccc(N5CCN(c6cc(-c7ccccc7O)nnc6N)CC5)cc4)C3)c21` (stereo partly shown) [I-121], the Dmax lay in the range of 70 to 90% and the DC50 was less than 100 nM.
`CN(CCCCc1ccc2c(c1)n(C)c(=O)n2C1CCC(=O)NC1=O)Cc1ccc(N2CCN(c3cc(-c4ccccc4O)nnc3N)CC2)cc1` (stereo not shown) [I-122]: the Dmax was less than 50% and the DC50 is more than 1000 nM.
For `CN(CCOCCOCCCc1ccc2c(c1)oc(=O)n2C1CCC(=O)NC1=O)Cc1ccc(N2CCN(c3cc(-c4ccccc4O)nnc3N)CC2)cc1` (stereo not shown) [I-123] the same measures were 70 to 90% and 100 to 500 nM.
With `Cn1c(=O)n(C2CCC(=O)NC2=O)c2cccc(CCCOCC3CN(Cc4ccc(N5CCN(c6cc(-c7ccccc7O)nnc6N)CC5)cc4)C3)c21` (stereo not shown) [I-124], the Dmax lay in the range of 70 to 90% and the 50% degradation concentration (DC50) is 100 to 500 nM.
For `CN(CCOCCCc1ccc2c(c1)n(C)c(=O)n2C1CCC(=O)NC1=O)Cc1ccc(N2CCN(c3cc(-c4ccccc4O)nnc3N)CC2)cc1` (stereo not shown) [I-125] the same measures were less than 50% and more than 1000 nM.
Regarding `Nc1nnc(-c2ccccc2O)cc1N1CCN(c2ccc(CNCCOCCOCCCc3ccc4c(c3)oc(=O)n4C3CCC(=O)NC3=O)cc2)CC1` (stereo not shown) [I-126], the Dmax is more than 90% and the DC50 was in the range of 100 to 500 nM.
With `Nc1nnc(-c2ccccc2O)cc1N1CCN(c2ccc(CNCCCOCCCc3ccc4c(c3)oc(=O)n4C3CCC(=O)NC3=O)cc2)CC1` (stereo not shown) [I-127], the Dmax lay within 50 to 70% and the DC50 is more than 1000 nM.
`Cn1c(=O)n(C2CCC(=O)NC2=O)c2ccc(CCCCOCCCCNCc3ccc(N4CCN(c5cc(-c6ccccc6O)nnc5N)CC4)cc3)cc21` (stereo not shown) [I-128]: the Dmax is more than 90% and the DC50 was less than 100 nM.
`CC(C)(CCOCCCc1cccc2c1oc(=O)n2C1CCC(=O)NC1=O)NCc1ccc(N2CCN(c3cc(-c4ccccc4O)nnc3N)CC2)cc1` (stereo not shown) [I-129]: the maximal degradation (Dmax) is more than 90% and the DC50 was more than 1000 nM.
With `Cn1c(=O)n(C2CCC(=O)NC2=O)c2ccc(CN3CCN(CCO[C@H]4C[C@H](NCc5ccc(N6CCN(c7cc(-c8ccccc8O)nnc7N)CC6)cc5)C4)CC3)cc21` (stereo partly shown) [I-131], the Dmax was in the range of 70 to 90% and the DC50 was more than 1000 nM.
`CN(Cc1ccc(N2CCN(c3cc(-c4ccccc4O)nnc3N)CC2)cc1)CC1CCN(Cc2cccc3c2n(C)c(=O)n3C2CCC(=O)NC2=O)CC1` (stereo not shown) [I-132, 3-(4-((4-(((4-(4-(3-amino-6-(2-hydroxyphenyl)pyridazin-4-yl)piperazin-1-yl)benzyl)(methyl)amino)methyl)piperidin-1-yl)methyl)-3-methyl-2-oxo-2,3-dihydro-1H-benzo[d]imidazol-1-yl)piperidine-2,6-dione]: the Dmax is more than 90% and the DC50 was less than 100 nM.
On to `Cn1c(=O)n(C2CCC(=O)NC2=O)c2cccc(CCCOCCOCCOCCOCCN3CCN(Cc4ccc(-c5cc(-c6ccccc6O)nnc5N)cc4)CC3)c21` (stereo not shown) [I-133], for which the Dmax was less than 50% and the half-maximal degradation concentration (DC50) was more than 1000 nM.
Take `Cn1c(=O)n(C2CCC(=O)NC2=O)c2ccc(CCCOCCOCCOCCN3CCN(Cc4ccc(-c5cc(-c6ccccc6O)nnc5N)cc4)CC3)cc21` (stereo not shown) [I-134]: the Dmax was 50 to 70% and the DC50 lay within 100 to 500 nM.
